Laboratory results from patent publication US8765820B2, “Tranylcypromine derivatives as inhibitors of histone demethylases LSD1 and/or LSD2” (Universita Degli Studi di Roma “La Sapienza”, priority 2010, dated 2014).
Counter-ions that a name gives are not always drawn. Like-named read-outs stand apart in the source and are kept apart here.

Columns and labels:
Mouse recombinant LSD2 = Mouse recombinant LSD2 (Mus musculus (Mouse), UniProt Q8CIG3); test: LSD2 inhibition, peroxidase-coupled assay with histone H3 peptide di-methylated at Lys4; format: biochemical; conditions: for Ki: pH 8.0, steady-state competition experiments, errors within 30%
Human recombinant MAO B = Human recombinant MAO B (Homo sapiens (Human), UniProt P27338); test: MAO B inhibition, peroxidase-coupled assay with benzylamine as substrate; format: biochemical; conditions: for MAO B Ki: 25° C., pH 7.5, no inhibition = no detectable inhibition at inhibitor saturated solutions
[1] = molecular target: Human recombinant LSD1/CoREST (Homo sapiens (Human), UniProt O60341); test: LSD1 inhibition, peroxidase-coupled assay with histone H3 peptide mono-methylated at Lys4; format: biochemical
Human recombinant MAO A = Human recombinant MAO A (Homo sapiens (Human), UniProt P21397); test: MAO A inhibition, peroxidase-coupled assay with kynuramine as substrate; format: biochemical
NB4 cells = conditions: RA 10 nM in the absence of 6e

Mouse recombinant LSD2, sequence (Q8CIG3 whole entry): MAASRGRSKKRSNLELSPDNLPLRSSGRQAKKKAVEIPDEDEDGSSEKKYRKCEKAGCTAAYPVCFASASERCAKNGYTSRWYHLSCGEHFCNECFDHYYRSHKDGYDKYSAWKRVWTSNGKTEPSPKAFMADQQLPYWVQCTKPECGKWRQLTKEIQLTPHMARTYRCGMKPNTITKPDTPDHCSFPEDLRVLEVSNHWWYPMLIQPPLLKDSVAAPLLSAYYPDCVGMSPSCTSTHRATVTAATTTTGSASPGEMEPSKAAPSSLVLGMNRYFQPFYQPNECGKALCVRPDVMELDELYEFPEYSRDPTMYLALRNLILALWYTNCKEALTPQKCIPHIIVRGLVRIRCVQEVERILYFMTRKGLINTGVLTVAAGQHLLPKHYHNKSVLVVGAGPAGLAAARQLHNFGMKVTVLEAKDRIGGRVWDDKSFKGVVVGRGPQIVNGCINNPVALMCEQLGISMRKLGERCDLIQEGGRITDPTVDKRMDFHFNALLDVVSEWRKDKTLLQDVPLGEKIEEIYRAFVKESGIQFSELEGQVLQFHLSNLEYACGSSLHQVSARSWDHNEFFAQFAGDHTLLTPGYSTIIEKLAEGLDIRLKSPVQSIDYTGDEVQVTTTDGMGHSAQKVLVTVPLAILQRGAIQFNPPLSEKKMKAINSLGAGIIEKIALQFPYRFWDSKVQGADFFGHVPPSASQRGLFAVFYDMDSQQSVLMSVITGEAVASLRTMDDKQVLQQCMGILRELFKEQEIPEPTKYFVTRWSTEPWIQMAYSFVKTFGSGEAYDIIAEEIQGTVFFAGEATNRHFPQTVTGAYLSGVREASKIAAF
Human recombinant MAO B, sequence (P27338 whole entry): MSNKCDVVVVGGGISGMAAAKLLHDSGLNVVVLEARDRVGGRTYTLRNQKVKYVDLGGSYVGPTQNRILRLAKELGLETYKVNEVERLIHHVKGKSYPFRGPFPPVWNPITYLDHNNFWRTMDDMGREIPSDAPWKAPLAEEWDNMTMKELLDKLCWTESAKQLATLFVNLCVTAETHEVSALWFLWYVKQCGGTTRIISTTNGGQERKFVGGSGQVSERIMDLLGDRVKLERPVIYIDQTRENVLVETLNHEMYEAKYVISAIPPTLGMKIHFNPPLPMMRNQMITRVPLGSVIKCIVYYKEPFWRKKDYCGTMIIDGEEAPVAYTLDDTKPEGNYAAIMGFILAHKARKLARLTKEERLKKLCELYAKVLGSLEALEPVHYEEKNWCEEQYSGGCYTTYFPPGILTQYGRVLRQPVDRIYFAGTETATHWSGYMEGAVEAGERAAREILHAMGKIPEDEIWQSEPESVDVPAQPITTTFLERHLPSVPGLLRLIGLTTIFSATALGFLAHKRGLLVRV
Human recombinant MAO A, sequence (P21397 whole entry, looked up): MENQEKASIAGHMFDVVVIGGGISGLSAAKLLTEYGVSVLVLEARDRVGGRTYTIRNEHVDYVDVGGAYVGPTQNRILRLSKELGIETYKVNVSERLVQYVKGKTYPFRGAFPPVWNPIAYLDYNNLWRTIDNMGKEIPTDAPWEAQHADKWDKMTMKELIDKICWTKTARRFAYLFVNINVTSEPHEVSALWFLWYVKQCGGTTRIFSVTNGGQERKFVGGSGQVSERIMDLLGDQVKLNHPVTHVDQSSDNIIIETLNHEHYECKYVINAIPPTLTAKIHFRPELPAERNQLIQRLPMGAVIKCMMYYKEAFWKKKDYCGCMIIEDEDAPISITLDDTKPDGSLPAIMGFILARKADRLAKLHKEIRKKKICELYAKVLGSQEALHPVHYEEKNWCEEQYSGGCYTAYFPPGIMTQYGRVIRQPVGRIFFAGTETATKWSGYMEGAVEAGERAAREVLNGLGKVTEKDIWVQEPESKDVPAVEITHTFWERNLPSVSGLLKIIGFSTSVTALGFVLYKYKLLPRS

Which melting point does the source give for `CC(C)C(NC(=O)OCc1ccccc1)C(=O)Nc1ccc([C@@H]2C[C@H]2N)cc1` (relative stereo) (as salt: hydrochloride) [Compound 6a, trans benzyl 1-(4-(2-aminocyclopropyl)phenylamino)-3-methyl-1-oxobutan-2-ylcarbamate] here?
The melting point was 168 to 170 °C.

For `CC(C)CC(NC(=O)OCc1ccccc1)C(=O)Nc1ccc([C@@H]2C[C@H]2N)cc1` (relative stereo) (as salt: hydrochloride) [Compound 6b, trans benzyl 1-(4-(2-aminocyclopropyl)phenylamino)-4-methyl-1-oxopentan-2-ylcarbamate], which melting point is on record?
The melting point was 158 to 160 °C.

With `N[C@@H]1C[C@H]1c1ccc(NC(=O)OCc2ccccc2)cc1` (relative stereo) [Compound 5a, trans benzyl 4-(2-aminocyclopropyl)phenylcarbamate] as the compound, how does the Ki (Mouse recombinant LSD2; 25° C.) read?
The Ki was 20 µM.

With `N[C@@H]1C[C@H]1c1ccc(NC(=O)c2ccccc2)cc1` (relative stereo) [Compound 5b, trans N-(4-(2-aminocyclopropyl)phenyl)benzamide] as the compound, how does the Ki (Mouse recombinant LSD2; 25° C.) read?
The Ki was 61 µM.

For `CC(C)C(NC(=O)OCc1ccccc1)C(=O)Nc1ccc([C@@H]2C[C@H]2N)cc1` (relative stereo) [Compound 6a, trans benzyl 1-(4-(2-aminocyclopropyl)phenylamino)-3-methyl-1-oxobutan-2-ylcarbamate], which “MAO B inhibition” value (Human recombinant MAO B) is on record?
Its value is “−”.

And the LSD1 inhibition [1]?
Its LSD1 inhibition is “+”.

And the “MAO A inhibition” value (Human recombinant MAO A)?
The value was “+”.

What about the LSD2 inhibition (Mouse recombinant LSD2) of the same compound?
Its LSD2 inhibition is “+”.

For `CC(C)CC(NC(=O)OCc1ccccc1)C(=O)Nc1ccc([C@@H]2C[C@H]2N)cc1` (relative stereo) [Compound 6b, trans benzyl 1-(4-(2-aminocyclopropyl)phenylamino)-4-methyl-1-oxopentan-2-ylcarbamate], which “MAO B inhibition” value (Human recombinant MAO B) is on record?
The value was “−”.

What about the LSD1 inhibition [1] of the same compound?
Its LSD1 inhibition is “+”.

What about the “MAO A inhibition” value (Human recombinant MAO A) of the same compound?
The value was “+”.

And the LSD2 inhibition (Mouse recombinant LSD2)?
Its LSD2 inhibition is “+”.

For `N[C@@H]1C[C@H]1c1ccc(NC(=O)C(Cc2ccccc2)NC(=O)OCc2ccccc2)cc1` (relative stereo) [Compound 6e, trans benzyl 1-(4-(2-aminocyclopropyl)phenylamino)-1-oxo-3-phenylpropan-2-ylcarbamate], which “MAO B Ki” value (Human recombinant MAO B) is on record?
Its value is “no inhibition^d”.

Which “MAO B inhibition” value (Human recombinant MAO B; 50 mM Hepes/NaOH pH 7.5, 0.5% reduced Triton X-100, max inhibitor concentration 1 mM or saturated solution) does the source give for `Cl.N[C@@H]1C[C@H]1c1ccc(NC(=O)CCCCCCC(=O)NO)cc1` (relative stereo) [Compound 9, trans N^1-(4-(2-aminocyclopropyl)phenyl)-N^8-hydroxyoctanediamide] here?
The value was “+”.

What about the LSD1 inhibition ([1]; 25° C., 50 mM Hepes/NaOH pH 7.5, max inhibitor concentration 1 mM or saturated solution) of the same compound?
The LSD1 inhibition was “+”.

And the LSD2 inhibition (Mouse recombinant LSD2; 25° C., 50 mM Hepes/NaOH pH 8.0, max inhibitor concentration 1 mM or saturated solution)?
Its LSD2 inhibition is “+”.

Which melting point does the source give for `Cl.NC1CC1c1ccc(NC(=O)C(Cc2ccccc2)NC(=O)OCc2ccc(Br)cc2)cc1` (stereo not drawn) [Compound 7, trans 4-bromobenzyl 1-(4-(2-aminocyclopropyl)phenylamino)-1-oxo-3-phenylpropan-2-ylcarbamate] here?
The melting point was 220 to 222 °C.

And the “MAO B inhibition” value (Human recombinant MAO B)?
The value was “−”.

And the “MAO B Ki” value (Human recombinant MAO B)?
Its value is “no inhibition^d”.

Which “MAO B inhibition” value (Human recombinant MAO B) does the source give for `Cl.NC1CC1c1ccc(NC(=O)C(Cc2ccccc2)NC(=O)OCc2ccccc2)cc1` (stereo not drawn) [Compound 8, cis benzyl 1-(4-(2-aminocyclopropyl)phenylamino)-1-oxo-3-phenylpropan-2-ylcarbamate] here?
Its value is “−”.

What about the “MAO B Ki” value (Human recombinant MAO B) of the same compound?
The value was “no inhibition^d”.

Which results are given for `CN(C(=O)C(Cc1ccccc1)NC(=O)OCc1ccccc1)c1ccc(C2CC2N)cc1.Cl` (stereo not drawn) [Compound 12, trans benzyl 1-((4-(2-aminocyclopropyl)phenyl)(methyl)amino)-1-oxo-3-phenylpropan-2-ylcarbamate]?
MAO B inhibition (Human recombinant MAO B): −; MAO B Ki (Human recombinant MAO B): no inhibition^d; MAO A inhibition (Human recombinant MAO A): +; LSD2 inhibition (Mouse recombinant LSD2): +

For `Cl.NC1CC1c1ccc(NC(=O)C(Cc2ccccc2)NC(=O)NCc2ccccc2)cc1` (stereo not drawn) [Compound 16, trans N-(4-(2-aminocyclopropyl)phenyl)-2-(3-benzylureido)-3-phenylpropanamide], which melting point is on record?
Its melting point is 153 to 155 °C.

And the “MAO B inhibition” value (Human recombinant MAO B)?
Its value is “+”.

And the “MAO A inhibition” value (Human recombinant MAO A)?
The value was “+”.

And the LSD2 inhibition (Mouse recombinant LSD2)?
The LSD2 inhibition was “+”.

With `CC1=C(/C=C/C(C)=C/C=C/C(C)=C/C(=O)O)C(C)(C)CCC1` [RA, retinoic acid] as the compound, how does the “differentiating effect of RA alone” value (NB4 cells) read?
The value was “almost totally ineffective”.

With “trans benzyl 1-(4-(2- aminocycylpropyl)phenylamino)-3- (napththalen-1-yl)-1-oxopropan-2- ylcarbamate [Compound 6j]” as the compound, how does the “MAO B inhibition” value (Human recombinant MAO B) read?
The value was “−”.

What about the LSD1 inhibition [1] of the same compound?
The LSD1 inhibition was “+”.

And the “MAO A inhibition” value (Human recombinant MAO A)?
The value was “+”.

And the LSD2 inhibition (Mouse recombinant LSD2)?
The LSD2 inhibition was “+”.
